Source: patent US20100210558A1, “MINIGASTRIN AS A THERAPEUTIC AGENT” (priority 2007, published 2010)
Where no end group is shown, it is not given here.

Columns and labels:
TNF alpha production = TNF alpha production assay (LPS-stimulated macrophages, ELISA); format: cell-based; conditions: human macrophages, peptide 10 micrograms per ml, lipopolysaccharide 200 ng/ml, overnight
in vitro = conditions: human
[1] = test system: hepatitis B virus (HBV) ayw strain; assay: HBV replication assay (secreted HBV DNA, TaqMan PCR); conditions: HepG2-2.2.15 cells; peptide 10 micrograms per ml; six days; HBV DNA in supernatant
[2] = Cytotoxicity in HCMV assay (CellTiter 96 cell viability); format: cell-based; conditions: human, MRC-5 cells (embryonal lung fibroblasts), 6 days incubation
Text: (§1) Cells were split twice a week 1:2.

[3] = test system: Human Peripheral Blood Mononuclear Cells (PBMC); assay: T cell proliferation assay (PHA, 3H-thymidine); format: cell-based; conditions: peptide 10 micrograms per ml, 3 days
Streptococcus pneumoniae = Streptococcus pneumoniae assay; format: cell-based; conditions: peptide 10 micrograms per ml, visual reading of growth
HUVEC = assay: Endothelial tube formation assay; format: cell-based, human; conditions: peptide 10 micrograms per ml, 20 hours
Text: Positive control was vehicle only.

[4] = test system: Primary Human endothelial cells (HUVEC); assay: Endothelial cell migration assay; format: cell-based; conditions: peptide 10 micrograms per ml, 22 hours
RAW 264.7 cells = assay: Phagocytosis assay (Fluorescein-labeled Escherichia coli); format: cell-based, mouse; conditions: peptide 10 micrograms per ml, Fluorescein-labeled E. coli, flow cytometry
[5] = test system: spleen cells (IL-2, IL-4, IL-5, IFN-γ, TNF-α protein levels); assay: Th1/Th2 cytokine profiling assay; format: cell-based, Balb/c mice; conditions: Ovalbumin-restimulated Balb/c spleen cells; peptide 10 micrograms per ml; 72 hours
[6] = Cytotoxicity in HIV-1 assay (MTS cell viability); conditions: human
A549 cells = assay: Propidium iodide cell cycle assay; format: cell-based, human; conditions: peptide 10 micrograms per ml, 24 hours, FACS
[7] = test system: Human Peripheral Blood Mononuclear Cells (PBMC); assay: B cell proliferation assay (SAC plus Interleukin-2, 3H-thymidine); format: cell-based; conditions: peptide 10 micrograms per ml, 3 days
MRSA = assay: Methicillin Resistant Staphylococcus Aureus (MRSA) assay; format: cell-based; conditions: peptide 10 micrograms per ml, visual reading of growth
HCMV strain AD169 = assay: HCMV plaque reduction assay; format: cell-based; conditions: HCMV AD169 in MRC-5 cells; peptide 10 micrograms per ml; 7-10 days
Text: as §1
Ganciclovir was used as positive control.

Pseudomonas aeruginosa = Pseudomonas aeruginosa assay; format: cell-based; conditions: peptide 10 micrograms per ml, visual reading of growth

Question: For LEEEEEAYGWMDF-NH2 [Minigastrin I], which “% of LPS induction” value (TNF alpha production) is on record?
Answer: Its value is 79.0%.

Question: And the viability at 144 h, 10 micrograms per ml (in vitro)?
Answer: The viability at 144 h, 10 micrograms per ml was 9.5%.

Question: And the “% inhibition of HBV replication in HEP G2 cells” value [1]?
Answer: The value was 49.9%.

Question: What about the viability at 144 h [2] of the same substance?
Answer: Its viability at 144 h is 100%.

Question: And the “% of PHA induced control” value [3]?
Answer: The value was 101.1%.

Question: What about the “% inhibition” value (Streptococcus pneumoniae) of the same substance?
Answer: The value was 0.0%.

Question: What about the “% inhibition of tube formation” value (HUVEC) of the same substance?
Answer: Its value is 36%.

Question: And the “% inhibition of migration” value [4]?
Answer: The value was −3%.

Question: What about the “% of control phagocytosis” value (RAW 264.7 cells) of the same substance?
Answer: The value was 145.7%.

Question: And the “IFNγ spleen cells; TH1 response (% of control)” value [5]?
Answer: Its value is 79.5 % of control.

Question: What about the “IL-2 spleen cells (% of control)” value [5] of the same substance?
Answer: The value was 149.2 % of control.

Question: What about the “IL-4 spleen cells; TH2 response (% of control)” value [5] of the same substance?
Answer: The value was 106.6 % of control.

Question: And the “IL-5 spleen cells; TH2 response (% of control)” value [5]?
Answer: Its value is 66.5 % of control.

Question: And the “TNF-a spleen cells; TH1 response (% of control)” value [5]?
Answer: The value was 99.0 % of control.

Question: And the viability at 10 micrograms per ml [6]?
Answer: The viability at 10 micrograms per ml was 100%.

Question: What about the “Cell cycle analysis G0/G1” value (A549 cells) of the same substance?
Answer: Its value is 57.1.

Question: And the “Cell cycle analysis G2/M” value (A549 cells)?
Answer: The value was 10.3.

Question: And the “Cell cycle analysis S” value (A549 cells)?
Answer: Its value is 32.6.

Question: And the “% of SAC/IL2 induced control” value [7]?
Answer: The value was 78.4%.

Question: And the “% inhibition” value (MRSA)?
Answer: Its value is 0.0%.

Question: And the “% plaque reduction” value (HCMV strain AD169)?
Answer: Its value is 1.4%.

Question: And the “% inhibition” value (Pseudomonas aeruginosa)?
Answer: The value was 0.0%.
